# Source: patent US5817669A, “Compounds, processes for the preparation thereof and anti-tumor agents” (Dainippon Pharmaceutical Co., Ltd., priority 1994, dated 1998)
# Structures can show the parent of a compound that is named as a salt. Where two headings read alike, the source gives them in different places.
# Columns and labels:
# [1] = system: colon 26 murine tumor cells; experiment: Tumor growth inhibition effect on colon 26 murine tumor cells implanted mice; type: in vivo, SLC: CDF1 mice; settings: for inhibition in vivo at 1.56 mg/kg: 1.56 mg/kg once a day
# Description: A 2% brei of colon 26 murine tumor cells was intracutaneously implanted each 0.1 ml in the abdominal part of SLC: CDF1 female mice (7 to 9 weeks old, 7 animals per one group). […] The obtained solutions were intraperitoneally (ip) administered each 0.2 ml once a day, from the day (1st day) following the implantation to the 9th day. On the 21st or 22nd day after the implantation, tumor weight was estimated from tumor diameters, and thus, the tumor growth inhibition rate (IR %) of the drug administered group in comparison with the control group was calculated according to the following equation. IR (%)=[1-{(MTW in the treated group)/(MTW in the control group)}]×10 0 MTW: mean tumor weight
# C33A human cervix cancer = experiment: In vitro anti-tumor activity against C-33A human cervix cancer (MTT); type: cell-based; settings: 72 h
# Description: (§1) A culture medium containing 500 to 2,000 human cancer cells was put in an amount of 0.1 ml in each well of 96-well plate, and the cells were cultured for 20 hours under a condition of 37° C. and 5% carbon dioxide gas in air. After the culturing, a solution of test compounds of predetermined concentration was added, and then, the cells were cultured for further 72 hours. After the culturing, an MTT (5 mg/ml) solution was added in an amount of 0.01 ml in the respective wells, and the cells were cultured for further 4 hours. The supernatants of the culture medium were removed by suction, and then, 0.1 ml of dimethyl sulfoxide was put in respective well to dissolve the formed formazan, and, moreover, 0.1 ml of dimethyl sulfoxide was added.
# [2] = system: AZ521 human stomach cancer; experiment: In vitro anti-tumor activity against AZ-521 human stomach cancer (MTT); type: cell-based; settings: AZ-521, 72 h
# Description: as §1
# A427 human lung cancer = experiment: In vitro anti-tumor activity against A-427 human lung cancer (MTT); type: cell-based; settings: A-427, 72 h
# Description: as §1
# [3] = system: KB human nasopharynx cancer; experiment: In vitro anti-tumor activity against KB human nasopharynx cancer (MTT); type: cell-based; settings: 72 h
# Description: as §1
# [4] = system: WiDr human colorectal cancer; experiment: In vitro anti-tumor activity against WiDr human colorectal cancer (MTT); type: cell-based; settings: 72 h
# Description: as §1
# [5] = system: murine P388 lymphocytic leukemia cells; experiment: In vitro anti-tumor activity against murine P388 lymphocytic leukemia cells (MTT, 72 h); type: cell-based; settings: Mus musculus, read-out: IC50 (50% proliferation inhibitory concentration)
# Description: Test compounds were tested for anti-tumor activity according to MTT [3-(4,5-dimethylthiazol-2-yl)-2,5-diphenyltetrazolium bromide] method, using murine P388 lymphocytic leukemia cells. […] The culture medium was centrifuged (4° C., 2,000 rpm for 20 minutes), and thus, the supernatants were removed by suction. Then, 0.1 ml of dimethyl sulfoxide was put in each well to dissolve the formed formazan, and, subsequently, another 0.1 ml of dimethyl sulfoxide was added. The absorbance (OD) of each of the obtained solutions was measured by use of Multiskan Bichromatic (main wavelength 570 nm, sub-wavelength 690 nm). […] IC50 :μg/ml) were calculated by the least squares method.
# HMV2 human melanoma = experiment: In vitro anti-tumor activity against HMV-2 human melanoma (MTT); type: cell-based; settings: HMV-2, 72 h
# Description: as §1
# [6] = system: MKN45 human stomach cancer; experiment: In vitro anti-tumor activity against MKN45 human stomach cancer (MTT); type: cell-based
# Description: as §1
# [7] = system: murine P388 lymphocytic leukemia cells; experiment: Increases in life span of mice implanted with murine P388 lymphocytic leukemia cells; type: in vivo, SLC: BDF1 mice; settings: Mus musculus, P388, ip, 720 h
# Description: 1×10^6 murine P388 lymphocytic leukemia cells were intraperitoneally implanted in each of SLC: BDF1 mice (8 to 10 weeks old, female, 7 animals per one group). A test compound (drug) was either dissolved in 0.1 N--NaOH or suspended in 0.4% carboxymethylcellulose solution, and the resultant solution or suspension was diluted with distilled water or 0.4% carboxymethylcellulose solution so as to give predetermined concentrations for administration. The obtained solution was intraperitoneally (ip) administered twice, namely on the day following the implantation (1st day) and the 5th day, each 0.2 ml. The life and death of the mice were observed over a period of 30 days, and the median survival time (hereinafter referred to as MST) was determined for each group, and, thus, the increase in life span (ILS; %) was calculated according to the following equation:
# ILS (%)=[{(MST of the test group)/(MST of the control group)}-1]×100
# Drug effect was judged in the following manner, according to the criterion of U.S. National Cancer Institute (NCI):
# ILS=75% or higher: ++ (remarkably effective);
# 20 to 74%: + (effective);
# 19% or lower: - (ineffective)
# Acute toxicity = settings: mouse, in vivo, mice, 14th day
# Description: Solutions of test compounds in predetermined concentrations were administered (0.1 ml/10 g body weight) to female BALB/c CrSlc mice (5 to 10 animals per one group, 10 weeks old) respectively, and, thus, LD50 values were calculated from the mortalities of the mice on the 14th day after the administration.
# Solubility = settings: for solubility relative to that of Compound 1-1 and 3: relative to Compound 1-1 and 3 (Z is hydrogen)
# [8] = Mus musculus, Colon 26, 504 h, ip, 12.5 mg/kg once a day, days 1-9, day 21 or 22, read-out: Tumor growth inhibition rate IR (%)
# [9] = MKN-45, MKN45, 72 h, MTT, read-out: IC50
# [10] = NCI criterion, ip, 1.56 mg/kg, read-out: Evaluation
# [11] = NCI criterion, ip, 3.13 mg/kg, read-out: Evaluation
# [12] = NCI criterion, ip, 6.25 mg/kg, read-out: Evaluation
# [13] = NCI criterion, ip, 12.5 mg/kg, read-out: Evaluation
# [14] = NCI criterion, ip, 25 mg/kg, read-out: Evaluation
# [15] = NCI criterion, ip, read-out: Evaluation
# [16] = ip, 1.56 mg/kg, days 1 and 5, in solution, read-out: ILS (%) (in solution)
# [17] = ip, 3.13 mg/kg, days 1 and 5, in solution, read-out: ILS (%) (in solution)
# [18] = ip, 3.13 mg/kg, days 1 and 5, in suspension, read-out: ILS (%) (in suspension)
# [19] = ip, 6.25 mg/kg, days 1 and 5, in solution, read-out: ILS (%) (in solution)
# [20] = ip, 12.5 mg/kg, days 1 and 5, in solution, read-out: ILS (%) (in solution)
# [21] = ip, 12.5 mg/kg, days 1 and 5, in suspension, read-out: ILS (%) (in suspension)
# [22] = ip, 25 mg/kg, days 1 and 5, in solution, read-out: ILS (%) (in solution)
# [23] = ip, days 1 and 5, in solution, read-out: ILS (%) (in solution)
# [24] = Intraperitoneal administration (ip)
# [25] = Mus musculus, Colon 26, 504 h, ip, days 1-9, day 21 or 22, read-out: Tumor growth inhibition rate IR (%)
# [26] = Intravenous administration (iv)
# [27] = read-out: ILS (%) (in solution)
Structure (SMILES),"IC50 (C33A human cervix cancer; C-33A, MTT, read-out: IC50)","IC50 ([2]; MTT, read-out: IC50)","IC50 (A427 human lung cancer; MTT, read-out: IC50)","IC50 ([3]; KB, MTT, read-out: IC50)","IC50 ([4]; MTT, read-out: IC50)","IC50 ([5]; murine P388 cells, 72 h, MTT)","IC50 (HMV2 human melanoma; MTT, read-out: IC50)","IC50 [6, 9]","ILS at 3.13 mg/kg [7, 11]","ILS at 6.25 mg/kg [7, 12]","ILS at 12.5 mg/kg [7, 13]","ILS at 25 mg/kg [7, 14]","ILS at 3.13 mg/kg [7, 17]","ILS at 3.13 mg/kg [7, 18]","ILS at 6.25 mg/kg [7, 19]","ILS at 12.5 mg/kg [7, 20]","ILS at 12.5 mg/kg [7, 21]","ILS at 25 mg/kg [7, 22]",LD50 at 336 h (Acute toxicity; [26]),also measured
CO[C@@H]1CN(c2ccc3c(=O)c(C(=O)O)cn(-c4nccs4)c3n2)C[C@H]1N (relative stereo) [Compound 2],0.314 µg/mL,0.331 µg/mL,0.169 µg/mL,0.309 µg/mL,1.88 µg/mL,0.0178 µg/mL,0.382 µg/mL,0.579 µg/mL,> 75%,> 75%,> 75%,> 75%,88%,63%,100%,125%,138%,213%,,"inhibition in vivo at 12.5 mg/kg [1, 8]: 79%; ILS at 1.56 mg/kg [7, 10]: 20 to 74%; ILS at 50 mg/kg [7, 15]: > 75%; ILS at 1.56 mg/kg [7, 16]: 50%; ILS at 50 mg/kg [7, 23]: > 275%; ILS at 50 mg/kg ([7]; ip, days 1 and 5, in suspension, read-out: ILS (%) (in suspension)): 238%; LD50 at 336 h (Acute toxicity; [24]): 135 mg/kg"
CN[C@@H]1CN(c2ccc3c(=O)c(C(=O)O)cn(-c4nccs4)c3n2)C[C@H]1C (relative stereo) [Compound 5],0.106 µg/mL,0.0433 µg/mL,0.0927 µg/mL,0.0805 µg/mL,0.218 µg/mL,0.0117 µg/mL,0.0944 µg/mL,0.0978 µg/mL,> 75%,> 75%,> 75%,,113%,88%,150%,188%,188%,,66.7 mg/kg,"inhibition in vivo at 1.56 mg/kg [1, 25]: 78%; ILS at 1.56 mg/kg [7, 10]: 20 to 74%; ILS at 1.56 mg/kg [7, 16]: 50%"
"COC1CN(c2ccc3c(=O)c(C(=O)O)cn(-c4nccs4)c3n2)CC1N(C)C(=O)[C@H](C)N (stereo partly drawn) [Compound 1-1-3, 7-[trans-3-(N-L-alanylmethylamino)-4-methoxy-1-pyrrolidinyl]-1,4-dihydro-4-oxo-1-(2-thiazolyl)-1,8-naphthyridine-3-carboxylic acid hydrochloride]",,,,,,,,,,,,,,,,,,,,"solubility (Solubility; 0.1 m phosphate buffer, pH 7.2, aqueous buffer): > 234 mg/mL; solubility relative to that of Compound 1-1 and 3 (Solubility): ≥ 10 times; solubility (Solubility; water): > 98.7 mg/mL"
"C[C@H](N)C(=O)NC1CCN(c2ccc3c(=O)c(C(=O)O)cn(-c4nccs4)c3n2)C1.Cl (stereo partly drawn) [Compound 3-1, 7-(3-L-alanylamino-1-pyrrolidinyl)-1,4-dihydro-4-oxo-1-(2-thiazolyl)-1,8-naphthyridine-3-carboxylic acid hydrochloride]",,,,,,,,,,,,,,,,,,,,solubility relative to that of Compound 1-1 and 3 (Solubility): ≥ 10 times; solubility (Solubility; water): 79.4 mg/mL
CNC1(C)CCN(c2ccc3c(=O)c(C(=O)O)cn(-c4nccs4)c3n2)C1 (centres unmarked) [Compound 4],0.144 µg/mL,0.1 µg/mL,0.194 µg/mL,0.172 µg/mL,0.392 µg/mL,0.0175 µg/mL,0.187 µg/mL,0.199 µg/mL,20 to 74%,> 75%,> 75%,> 75%,63%,63%,88%,125%,125%,150%,> 100 mg/kg,"inhibition in vivo at 1.56 mg/kg [1, 25]: 64%; inhibition in vivo at 3.13 mg/kg ([1]; Mus musculus, Colon 26, 504 h, ip, 3.13 mg/kg once a day, days 1-9, day 21 or 22, read-out: Tumor growth inhibition rate IR (%)): 89%"
"O=C(O)c1cn(-c2nccs2)c2nc(N3CCCC3)c(F)cc2c1=O [Compound A, reference compound]",0.651 µg/mL,0.797 µg/mL,0.854 µg/mL,1.94 µg/mL,4.09 µg/mL,0.0942 µg/mL,2.88 µg/mL,1.27 µg/mL,,,,20 to 74%,,,,0%,,25%,,"inhibition in vivo at 12.5 mg/kg [1, 8]: 23%; tumor growth inhibition (IR), colon 26, in words ([1]; in words): apparently inferior to the compounds of this invention in view of both doses and inhibition rates; ILS at 50 mg/kg [7, 15]: 20 to 74%; ILS at 50 mg/kg [7, 23]: 38%"
"COc1cc([C@@H]2c3cc4c(cc3[C@@H](O[C@@H]3O[C@@H]5CO[C@@H](C)O[C@H]5[C@H](O)[C@H]3O)[C@H]3COC(=O)[C@H]23)OCO4)cc(OC)c1O [Compound H, Etoposide, reference compound]",,,,,,,,,,,,,,,,,,,123 mg/kg,"inhibition in vivo at 12.5 mg/kg ([1]; Mus musculus, Colon 26, ip, 504 h, read-out: Tumor growth inhibition rate IR (%)): 57%; IC50 (C33A human cervix cancer; C-33-A): 0.084 µg/mL; IC50 [2]: 0.08 µg/mL; IC50 (A427 human lung cancer): 0.095 µg/mL; IC50 [3]: 0.201 µg/mL; IC50 [4]: 1.63 µg/mL; IC50 ([5]; P388, 72 h): 0.00849 µg/mL; IC50 (HMV2 human melanoma): 0.298 µg/mL; IC50 ([6]; MKN-45, 72 h): 0.49 µg/mL; ILS at 1.56 mg/kg ([7]; read-out: Evaluation): 20 to 74%; ILS at 3.13 mg/kg ([7]; read-out: Evaluation): > 75%; ILS at 6.25 mg/kg ([7]; read-out: Evaluation): > 75%; ILS at 12.5 mg/kg ([7]; read-out: Evaluation): > 75%; ILS at 25 mg/kg ([7]; read-out: Evaluation): > 75%; ILS at 1.56 mg/kg [7, 27]: 50%; ILS at 3.13 mg/kg [7, 27]: 75%; ILS at 6.25 mg/kg [7, 27]: 100%; ILS at 12.5 mg/kg [7, 27]: 150%; ILS at 25 mg/kg [7, 27]: > 275%; LD50 at 336 h (Acute toxicity; [24]): 71 mg/kg"
